{"source": "patent US9908880B2", "about": "“Substituted imidazoquinolines” (4SC AG, priority 2008, dated 2018)", "key": {"[1]": {"tested_on": "Renca LacZ tumor cell lung metastases", "assay": "Renca lung metastasis model", "protocol": "(§1) In particular, female Balb/c mice (n=10) were treated for 4 consecutive days starting day 1 or day 8 after Renca LacZ tumor cell injection, respectively. The compounds were applied in 20% PEG, ODNs in 0.9% NaCl as indicated. Lungs were excised 25 days after tumor cell injection.\nas §1, with “compounds (small molecules (SMOLs))” for “compounds”\nAbstract 3552, Proc Am Cancer Res 48, 2007.\nIn particular, female Balb/c mice (n=10) were treated for 4 consecutive days starting day 1 or day 8 after Renca LacZ tumor cell injection, respectively. The SMOLs were applied in 20% PEG, the oligonucleotides in 0.9% NaCl as indicated. Lungs were excised 25 days after tumor cell injection (see FIG. 4A). Further, female Balb/c mice (n=5) were treated for 4 consecutive days as indicated. The SMOLs were applied in 20% PEG, oligonucleotides in 0.9% NaCl. At day 4 of treatment, blood was collected via orbital plexus and spleens were excised. Subsequently, mRNA was isolated for expression analysis via qPCR. Data were normalized to vehicle control (mean set to 1). Statistical evaluation was performed via Mann-Whitney test (see FIG. 4B). […]"}, "[2]": {"tested_on": "superficial basal cell carcinomas", "conditions": "marketed 5% cream (Aldara), topical; cited from earlier work"}, "PCIR-1 cells": {"tested_on": "PCIR-1 cells", "assay": "Cytokine mRNA induction in PCIR-1 human cancer cell line (TaqMan PCR)", "format": "cell-based", "conditions": "for induction of IP-10: after 15 h", "protocol": "Expression of IL8 mRNA was measured with TaqMan PCR after 16 hours incubation of cells with H2006, LPS or Resiquimod alone and in combination with cloroquine.\nCellular assays using a human cancer cell line (PCIR-1) or human PBMC fractions to test compounds for activating TLR7 are established.\nSpecificity for TLR7 and 9 was checked by adding chloroquine, which abrogates signaling through endosomal TLRs. The PCIR-1 system is suited for measuring the interferone-linked cytokine IP10 by a bead-based assay in the 384-well format.\nTLR mRNA Expression in PCIR-1 (TaqMan PCR Analysis)\nAlso response to poly I-C double-stranded RNA (TLR 3 ago); 40-fold induction of IP-10 after 15 h) and MALP-2 (TLR 2/6 hetero-dimer ago, 100-fold induction of IP-10 after 15 h) is detected.\nIn contrast TLR4 signaling by LPS is not affected (FIG. 1)."}}, "data": [{"compound": "CCc1nc2c(N)nc3ccccc3c2n1CCCCN(C(C)=O)C1CCOC1C", "note": "(stereo not drawn) [Example III, 3-{acetyl[4-(4-amino-2-ethyl-1H-imidazo[4,5-c]quinolin-1-yl)butyl]amino}-2,5-anhydro-1,3,4-trideoxypentitol]", "values": [{"measurement": "anti-metastatic effect (clearance of the lungs)", "setting": "[1]; short treatment (d1-4), FIG. 5", "value": "strong anti-metastatic effect with virtually complete clearance of the lungs"}]}, {"compound": "CC(C)Cn1cnc2c(N)nc3ccccc3c21", "note": "[Imiquimod, imiquimod]", "values": [{"measurement": "5 year clearance of superficial basal cell carcinomas", "setting": "[2]", "value": "approx 80%"}]}, {"compound": "CCN(CC)CCCC(C)Nc1ccnc2cc(Cl)ccc12", "note": "(stereo not drawn) [chloroquine]", "values": [{"measurement": "signaling via TLR7 and TLR9 on addition of chloroquine", "setting": "PCIR-1 cells; FIG. 1, IL8 mRNA after 16 hours", "value": "completely blocked"}]}, {"compound": "Nc1nc2c(sc(=O)n2[C@@H]2O[C@H](CO)[C@@H](O)[C@H]2O)c(=O)[nH]1", "note": "[isatoribine, 7-thia-8-oxoguanosine]", "values": [{"measurement": "emergence of lung metastases", "setting": "[1]; murine Renca lung metastasis model", "value": "virtually completely suppressed"}]}, {"compound": "MALP-2", "values": [{"measurement": "induction of IP-10", "setting": "PCIR-1 cells", "value": 100, "unit": "fold"}]}, {"compound": "poly I-C", "values": [{"measurement": "induction of IP-10", "setting": "PCIR-1 cells", "value": 40, "unit": "fold"}]}]}
